This passage reports EC90 results from patent US20100093076A1, “SOLUBLE IL-27 RECEPTOR” (priority 2006, published 2010).

Assay [1] relates to total human PBMCs. In words: IL-27 EC90 determination, phosphorylated STAT3 in total human PBMCs. It counts as cell-based. Conditions: read-out: EC90 concentration. The source says: (§1) Whole mouse spleens were harvested from C57 B1/6 mice and washed two times with 1×PBS before being plated out at 2×10^5 cells/well in assay media (RPMI 1640 plus 10% fetal bovine serum) in 96-well, round-bottom tissue culture plates. Total human PBMC (peripheral blood mononuclear cells) were thawed from a frozen vial collected from a leukapherisis donation and washed two times with 1×PBS before being plated out at 10^6 cells/well in assay media in 96-well, round-bottom tissue culture plates. […] Following pre-incubation, treatments were added to the plates containing the cells and incubated together at 37° C. for 15 minutes.
(§2) Following incubation, cells were washed with ice-cold wash buffer (BIO-PLEX Cell Lysis Kit, BIO-RAD Laboratories, Hercules, Calif.) and put on ice to stop the reaction according to manufacturer's instructions. […]
(§3) Capture beads (BIO-PLEX Phospho-Stat3 Assay, BIO-RAD Laboratories) were combined with 50 μL of 1:1 diluted lysates and added to a 96-well filter plate according to manufacture's instructions (BIO-PLEX Phosphoprotein Detection Kit, BIO-RAD Laboratories). […] After the final wash, beads were resuspended in 125 μL/well of bead suspension buffer, shaken for 30 seconds, and read on an array reader (BIO-PLEX, BIO-RAD Laboratories) according to the manufacture's instructions. Data were analyzed using analytical software (BIO-PLEX MANAGER 3.0, BIO-RAD Laboratories). […]

Assay [2] concerns mouse spleens. In words: IL-27 EC90 determination, phosphorylated STAT3 in mouse spleens. The settings on record: read-out: EC90 concentration. The class given is cell-based.
Description: as §1, §2, §3

For huIL-27: Human IL-27 (R&D Systems), the EC90 in assay [1] and in assay [2] was 2 nM each time.
